For the first assay, the system named is 843126-344-R-J1-PDC complex spheroid viability. Description: Anticancer human tumor 843126-344-R-J1-PDC patient-derived melanoma cell line growth inhibition [POLQ]. As to conditions: second compound 0.0316 µM; first compound 3.16 µM; active compounds read low. The method in brief:
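Patient-derived tumour cells were co-cultured with HUVEC and mesenchymal stem cells as multicellular spheroids at 37 °C. They were treated with POLQ inhibitors (novobiocin, ART-558, RP6685) alone or combined with other agents. Top concentrations were at or near clinical Cmax (otherwise 10 microM; SN-38 at 1 microM), decreasing in half-log steps.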
For `COc1cc(C2c3cc4c(cc3C(OC3OC5COC(C)OC5C(O)C3O)C3COC(=O)C23)OCO4)cc(OC)c1O` (stereo unspecified) + Cc1cccc(N(C)C(=O)C2C(O)CCN2c2nc(C)cc(C(F)(F)F)c2C#N)c1, the viability, T/C is 55.3%.
Same read-out and setting: then `COc1cccc2c1C(=O)c1c(O)c3c(c(O)c1C2=O)CC(O)(C(=O)CO)CC3OC1CC(N)C(O)C(C)O1` (stereo unspecified) + Cc1cccc(N(C)C(=O)C2C(O)CCN2c2nc(C)cc(C(F)(F)F)c2C#N)c1, with 3.5%.

The same assay, now with this note: second compound 0.0316 µM; first compound 10 µM; active compounds read low.
Consider `CC1COCCN1c1cc(C2(O)CC3CCC(C2)O3)c2cnn(-c3ccn[nH]3)c2n1` (stereo unspecified) + COC1C(OC(N)=O)C(O)C(Oc2ccc3c(O)c(NC(=O)c4ccc(O)c(CC=C(C)C)c4)c(=O)oc3c2C)OC1(C)C, for which the viability, T/C was 14.5%.
On the same count and under the same terms, then `O=C(Nc1ccc(O)c(NS(=O)(=O)c2ccc(F)cc2)c1)c1ccc(-c2ccccc2)cc1` + COC1C(OC(N)=O)C(O)C(Oc2ccc3c(O)c(NC(=O)c4ccc(O)c(CC=C(C)C)c4)c(=O)oc3c2C)OC1(C)C, with 69.4%; and `COc1cc(C2c3cc4c(cc3C(OC3OC5COC(C)OC5C(O)C3O)C3COC(=O)C23)OCO4)cc(OC)c1O` (stereo unspecified) + Cc1cccc(N(C)C(=O)C2C(O)CCN2c2nc(C)cc(C(F)(F)F)c2C#N)c1, with 49.3%.
As to `COc1cccc2c1C(=O)c1c(O)c3c(c(O)c1C2=O)CC(O)(C(=O)CO)CC3OC1CC(N)C(O)C(C)O1` (stereo unspecified) + Cc1cccc(N(C)C(=O)C2C(O)CCN2c2nc(C)cc(C(F)(F)F)c2C#N)c1, the viability, T/C was 3.68%.

Still in this assay, the particulars now being: second compound 0.1 µM; first compound 0.0316 µM; active compounds read low.
On to `CC1COCCN1c1cc(C2(O)CC3CCC(C2)O3)c2cnn(-c3ccn[nH]3)c2n1` (stereo unspecified) + COC1C(OC(N)=O)C(O)C(Oc2ccc3c(O)c(NC(=O)c4ccc(O)c(CC=C(C)C)c4)c(=O)oc3c2C)OC1(C)C, for which the viability, T/C is 78.8%.
Same read-out and setting: then `O=C(Nc1ccc(O)c(NS(=O)(=O)c2ccc(F)cc2)c1)c1ccc(-c2ccccc2)cc1` + COC1C(OC(N)=O)C(O)C(Oc2ccc3c(O)c(NC(=O)c4ccc(O)c(CC=C(C)C)c4)c(=O)oc3c2C)OC1(C)C, with 94.3%; and `COc1cc(C2c3cc4c(cc3C(OC3OC5COC(C)OC5C(O)C3O)C3COC(=O)C23)OCO4)cc(OC)c1O` (stereo unspecified) + Cc1cccc(N(C)C(=O)C2C(O)CCN2c2nc(C)cc(C(F)(F)F)c2C#N)c1, with 83.2%; and `COc1cccc2c1C(=O)c1c(O)c3c(c(O)c1C2=O)CC(O)(C(=O)CO)CC3OC1CC(N)C(O)C(C)O1` (stereo unspecified) + Cc1cccc(N(C)C(=O)C2C(O)CCN2c2nc(C)cc(C(F)(F)F)c2C#N)c1, with 87.9%.

Still in this assay, the particulars now being: second compound 0.1 µM; first compound 0.1 µM; active compounds read low.
Turning to `CC1COCCN1c1cc(C2(O)CC3CCC(C2)O3)c2cnn(-c3ccn[nH]3)c2n1` (stereo unspecified) + COC1C(OC(N)=O)C(O)C(Oc2ccc3c(O)c(NC(=O)c4ccc(O)c(CC=C(C)C)c4)c(=O)oc3c2C)OC1(C)C, the viability, T/C is 78.9%.
As for `O=C(Nc1ccc(O)c(NS(=O)(=O)c2ccc(F)cc2)c1)c1ccc(-c2ccccc2)cc1` + COC1C(OC(N)=O)C(O)C(Oc2ccc3c(O)c(NC(=O)c4ccc(O)c(CC=C(C)C)c4)c(=O)oc3c2C)OC1(C)C, the viability, T/C was 93.8%.
Regarding `COc1cc(C2c3cc4c(cc3C(OC3OC5COC(C)OC5C(O)C3O)C3COC(=O)C23)OCO4)cc(OC)c1O` (stereo unspecified) + Cc1cccc(N(C)C(=O)C2C(O)CCN2c2nc(C)cc(C(F)(F)F)c2C#N)c1, the viability, T/C is 103%.
Same read-out and setting: for `COc1cccc2c1C(=O)c1c(O)c3c(c(O)c1C2=O)CC(O)(C(=O)CO)CC3OC1CC(N)C(O)C(C)O1` (stereo unspecified) + Cc1cccc(N(C)C(=O)C2C(O)CCN2c2nc(C)cc(C(F)(F)F)c2C#N)c1 the value was 72.7%.

Staying with this assay, now noted: second compound 0.1 µM; first compound 0.316 µM; active compounds read low.
In the case of `CC1COCCN1c1cc(C2(O)CC3CCC(C2)O3)c2cnn(-c3ccn[nH]3)c2n1` (stereo unspecified) + COC1C(OC(N)=O)C(O)C(Oc2ccc3c(O)c(NC(=O)c4ccc(O)c(CC=C(C)C)c4)c(=O)oc3c2C)OC1(C)C, the viability, T/C is 53.2%.
The same measure, in the same setting: for `O=C(Nc1ccc(O)c(NS(=O)(=O)c2ccc(F)cc2)c1)c1ccc(-c2ccccc2)cc1` + COC1C(OC(N)=O)C(O)C(Oc2ccc3c(O)c(NC(=O)c4ccc(O)c(CC=C(C)C)c4)c(=O)oc3c2C)OC1(C)C the value was 119%.
The same measure, in the same setting: for `COc1cc(C2c3cc4c(cc3C(OC3OC5COC(C)OC5C(O)C3O)C3COC(=O)C23)OCO4)cc(OC)c1O` (stereo unspecified) + Cc1cccc(N(C)C(=O)C2C(O)CCN2c2nc(C)cc(C(F)(F)F)c2C#N)c1 the value was 100%; for `COc1cccc2c1C(=O)c1c(O)c3c(c(O)c1C2=O)CC(O)(C(=O)CO)CC3OC1CC(N)C(O)C(C)O1` (stereo unspecified) + Cc1cccc(N(C)C(=O)C2C(O)CCN2c2nc(C)cc(C(F)(F)F)c2C#N)c1, 45.2%.

The assay is the same for the next values; noted with them: second compound 0.1 µM; first compound 1 µM; active compounds read low.
Turning to `CC1COCCN1c1cc(C2(O)CC3CCC(C2)O3)c2cnn(-c3ccn[nH]3)c2n1` (stereo unspecified) + COC1C(OC(N)=O)C(O)C(Oc2ccc3c(O)c(NC(=O)c4ccc(O)c(CC=C(C)C)c4)c(=O)oc3c2C)OC1(C)C, the viability, T/C was 38.8%.
On the same count and under the same terms, for `O=C(Nc1ccc(O)c(NS(=O)(=O)c2ccc(F)cc2)c1)c1ccc(-c2ccccc2)cc1` + COC1C(OC(N)=O)C(O)C(Oc2ccc3c(O)c(NC(=O)c4ccc(O)c(CC=C(C)C)c4)c(=O)oc3c2C)OC1(C)C the value was 99.6%.
The same measure, in the same setting: for `COc1cc(C2c3cc4c(cc3C(OC3OC5COC(C)OC5C(O)C3O)C3COC(=O)C23)OCO4)cc(OC)c1O` (stereo unspecified) + Cc1cccc(N(C)C(=O)C2C(O)CCN2c2nc(C)cc(C(F)(F)F)c2C#N)c1 the value was 68.9%.

The values are drawn from PubChem BioAssay AID1963837 (Molecular Pharmacology Branch, DTP, NCI, 2024).
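Also: spheroids exposed to drugs for seven days before readout.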
